Assay results: publication PMC3875306 (Bioorganic & medicinal chemistry letters, 2013)

Tests used:
rat models of addiction = conditions: cited from earlier work
rat model of anxiety = conditions: cited from earlier work
[1] = test system: squirrel monkey models of addiction; conditions: cited from earlier work
[2] = test system: acoustic prepulse inhibition models; conditions: cited from earlier work
[3] = test system: rat models of neuropathic pain; conditions: cited from earlier work
[4] = test system: rat models of post-operative pain; conditions: cited from earlier work
human mGlu1 = human mGlu1 (Homo sapiens, UniProt Q13255); assay: Calcium mobilization mGlu1 assay; conditions: for preference in mGlu1 NAM activity for the R-enantiomer versus the S-enantiomer: 15 vs 14, 17 vs 16; for LLE (ligand-lipophilicity efficiency): LLE = pIC50 - cLogP
Chain of human mGlu1 (Q13255 19-1194): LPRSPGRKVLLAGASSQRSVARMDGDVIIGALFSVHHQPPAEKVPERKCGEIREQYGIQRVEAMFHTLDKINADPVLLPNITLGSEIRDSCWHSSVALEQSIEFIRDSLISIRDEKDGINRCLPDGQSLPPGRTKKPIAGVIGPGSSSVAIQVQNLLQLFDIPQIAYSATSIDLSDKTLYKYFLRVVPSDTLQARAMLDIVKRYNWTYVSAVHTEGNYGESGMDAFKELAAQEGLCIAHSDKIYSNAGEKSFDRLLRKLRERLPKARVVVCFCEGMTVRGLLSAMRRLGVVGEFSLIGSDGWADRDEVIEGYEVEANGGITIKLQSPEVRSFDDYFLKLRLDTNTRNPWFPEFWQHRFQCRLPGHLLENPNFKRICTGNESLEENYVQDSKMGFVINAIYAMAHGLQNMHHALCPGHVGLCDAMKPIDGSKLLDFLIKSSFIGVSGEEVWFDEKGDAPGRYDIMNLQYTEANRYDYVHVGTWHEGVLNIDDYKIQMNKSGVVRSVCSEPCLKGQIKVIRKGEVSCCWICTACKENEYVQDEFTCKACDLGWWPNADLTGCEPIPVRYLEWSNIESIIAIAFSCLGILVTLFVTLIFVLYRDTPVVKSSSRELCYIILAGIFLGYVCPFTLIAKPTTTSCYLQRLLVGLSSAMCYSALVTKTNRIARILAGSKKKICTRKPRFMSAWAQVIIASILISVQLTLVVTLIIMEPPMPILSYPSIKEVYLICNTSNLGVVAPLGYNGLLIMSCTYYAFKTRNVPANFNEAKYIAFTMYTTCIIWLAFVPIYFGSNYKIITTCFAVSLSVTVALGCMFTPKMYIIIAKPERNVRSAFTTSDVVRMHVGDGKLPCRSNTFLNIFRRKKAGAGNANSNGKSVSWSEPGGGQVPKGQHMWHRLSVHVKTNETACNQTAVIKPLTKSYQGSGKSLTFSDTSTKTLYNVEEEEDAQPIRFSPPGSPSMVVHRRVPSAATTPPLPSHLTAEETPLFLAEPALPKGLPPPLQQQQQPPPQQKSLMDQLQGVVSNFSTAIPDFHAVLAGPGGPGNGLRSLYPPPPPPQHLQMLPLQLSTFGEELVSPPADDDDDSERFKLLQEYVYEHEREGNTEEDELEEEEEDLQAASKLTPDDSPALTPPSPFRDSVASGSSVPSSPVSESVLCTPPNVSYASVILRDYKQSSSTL

mGlu2–8 = conditions: at 10 µM
[5] = test system: 68 clinically relevant GPCRs, ion channels, kinases, and transporters; assay: Radioligand binding assay panel; conditions: 10 µM; significant = more than 50% inhibition of radioligand binding
in vivo = conditions: male, Sprague-Dawley, rat, plasma, iv, 0.2 mg/kg
[6] = IV dosing, rat, in words
rat mGlu1 = rat mGlu1 (Rattus norvegicus, UniProt P23385); assay: Functional cell based assay against rat mGlu1; conditions: HEK 293A TREx cells expressing rat mGlu1
Chain of rat mGlu1 (P23385 19-1199): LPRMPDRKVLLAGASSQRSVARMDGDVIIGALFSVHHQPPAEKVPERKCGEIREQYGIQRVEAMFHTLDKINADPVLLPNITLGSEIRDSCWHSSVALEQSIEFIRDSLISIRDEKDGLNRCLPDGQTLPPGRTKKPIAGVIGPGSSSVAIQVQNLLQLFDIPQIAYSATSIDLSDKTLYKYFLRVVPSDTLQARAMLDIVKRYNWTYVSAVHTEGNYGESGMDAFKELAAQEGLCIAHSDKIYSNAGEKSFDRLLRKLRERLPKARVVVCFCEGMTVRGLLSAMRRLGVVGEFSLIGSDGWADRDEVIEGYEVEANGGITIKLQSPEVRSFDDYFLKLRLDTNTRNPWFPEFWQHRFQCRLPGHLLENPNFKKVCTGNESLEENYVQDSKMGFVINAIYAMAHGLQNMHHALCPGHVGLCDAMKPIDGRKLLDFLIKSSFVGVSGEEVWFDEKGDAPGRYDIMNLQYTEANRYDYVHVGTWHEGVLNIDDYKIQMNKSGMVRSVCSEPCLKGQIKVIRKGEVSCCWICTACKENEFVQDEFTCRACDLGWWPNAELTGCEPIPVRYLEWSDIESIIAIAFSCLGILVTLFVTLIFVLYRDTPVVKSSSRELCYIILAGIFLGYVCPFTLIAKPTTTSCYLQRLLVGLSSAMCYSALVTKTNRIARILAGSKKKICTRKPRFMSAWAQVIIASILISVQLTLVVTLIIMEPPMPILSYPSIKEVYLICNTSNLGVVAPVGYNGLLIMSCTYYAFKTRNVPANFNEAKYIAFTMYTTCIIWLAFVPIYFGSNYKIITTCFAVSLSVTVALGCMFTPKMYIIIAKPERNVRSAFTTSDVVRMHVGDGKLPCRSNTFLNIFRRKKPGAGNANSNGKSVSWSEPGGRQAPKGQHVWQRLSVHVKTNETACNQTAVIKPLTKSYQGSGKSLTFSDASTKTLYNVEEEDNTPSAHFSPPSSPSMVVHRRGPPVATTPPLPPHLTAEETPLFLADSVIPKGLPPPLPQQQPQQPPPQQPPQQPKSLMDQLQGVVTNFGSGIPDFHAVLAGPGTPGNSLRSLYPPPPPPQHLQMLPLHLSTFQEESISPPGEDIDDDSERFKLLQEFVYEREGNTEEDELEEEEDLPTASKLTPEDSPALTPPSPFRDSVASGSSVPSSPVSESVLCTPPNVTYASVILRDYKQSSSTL

Q: Which results are given for `COC1CCC(C(=O)c2ccc3nc4c(cc3c2)CCCO4)CC1` (centres unmarked) [Compound 1]?
A: efficacy in rat models of addiction (rat models of addiction): efficacious; efficacy in a rat model of anxiety (rat model of anxiety): efficacious; efficacy in squirrel monkey models of addiction [1]: efficacious; antipsychotic activity, acoustic prepulse inhibition models, mice [2]: Antipsychotic activity

Q: Which “analgesia in rat models of neuropathic pain” value [3] does the source give for `CN(C)c1ccnc2sc3c(=O)n(N4CCCCCC4)cnc3c12` [Compound 2] here?
A: analgesic

Q: And the “analgesia in rat models of post-operative pain” value [4]?
A: analgesic

Q: For `C[C@@H]1CN(c2ccccn2)CCN1C(=O)C12CC3CC(CC(C3)C1)C2` [Compound 15], which “preference in mGlu1 NAM activity for the R-enantiomer versus the S-enantiomer” value (human mGlu1) is on record?
A: 15 fold

Q: Which “preference in mGlu1 NAM activity for the R-enantiomer versus the S-enantiomer” value (human mGlu1) does the source give for `C[C@@H]1CN(C(=O)C23CC4CC(CC(C4)C2)C3)CCN1c1ccccn1` [Compound 17] here?
A: sixfold

Q: For `C[C@@H]1CN(C(=O)C23CC4CC(CC(C4)C2)C3)CCN1c1ccncc1` [Compound 39], which “mGlu1 activity at the top concentration tested” value (human mGlu1; 30 µM) is on record?
A: no activity

Q: With `C[C@@H]1CN(c2ccccc2C#N)CCN1C(=O)C12CC3CC(CC(C3)C1)C2` [Compound 46] as the compound, how does the “LLE (ligand-lipophilicity efficiency)” value (human mGlu1) read?
A: 1.82

Q: Which “LLE (ligand-lipophilicity efficiency)” value (human mGlu1) does the source give for `C[C@@H]1CN(c2cccc(F)n2)CCN1C(=O)C12CC3CC(CC(C3)C1)C2` [Compound 48] here?
A: 1.85

Q: For `C[C@@H]1CN(c2ccc(F)cn2)CCN1C(=O)C12CC3CC(CC(C3)C1)C2` [Compound 49], which “LLE (ligand-lipophilicity efficiency)” value (human mGlu1) is on record?
A: 1.73

Q: For `C[C@@H]1CN(c2ncccc2C#N)CCN1C(=O)C12CC3CC(CC(C3)C1)C2` [Compound 51], which “LLE (ligand-lipophilicity efficiency)” value (human mGlu1) is on record?
A: 2.24

Q: With `C[C@@H]1CN(c2ccncc2C#N)CCN1C(=O)C12CC3CC(CC(C3)C1)C2` [Compound 53] as the compound, how does the “LLE (ligand-lipophilicity efficiency)” value (human mGlu1) read?
A: 2.89

Q: For `C[C@@H]1CN(c2cccnc2C#N)CCN1C(=O)C12CC3CC(CC(C3)C1)C2` [Compound 54], which “activity against mGlu2–8” value (mGlu2–8) is on record?
A: inactive

Q: And the “responses in radioligand binding panel of 68 targets” value [5]?
A: no significant responses

Q: What about the half-life (in vivo) of the same compound?
A: ~1 h

Q: And the clearance [6]?
A: moderate to high

Q: What about the volume of distribution [6] of the same compound?
A: moderate

Q: What about the “activity at rat mGlu1 compared with human mGlu1” value (rat mGlu1) of the same compound?
A: little difference across species
